Entries after “also recorded” stand apart in the source; their conditions may differ.
Columns and labels:
Type in all cases: physicochemical
[1] = 4 week open dish accelerated chemical stability of 12 mg tablets, analyzed using HPLC; settings: 40° C./75% RH
Experimental: To assess the chemical stability of Crystalline Form II of verubecestat in the tablet formulation, a 4 week open dish accelerated stability experiment was performed at a controlled temperature and humidity. Identical measurements were made to Crystalline Form I of verubecestat, which Form I is described in WO2016025364 for comparison. […] At the end of two weeks and of four weeks, tablets were analyzed using HPLC. The data obtained are reported in the following table, where “Hyd1” and “Hyd2” indicate observed degradation product: […]

[2] = Thermodynamic stability by competitive slurry experiments in various solvent systems, resultant form by PXRD; settings: slurried in various solvents for an extended period of time at a controlled temperature
Experimental: The thermodynamic stability of Crystalline Form II of Verubecestat was assessed using competitive slurry experiments in various solvent systems. Crystalline Form I of Verubecestat, obtained using the procedures set out in WO2016025364, and Crystalline Form II of verubecestat material obtained as described above were slurried in various solvents for an extended period of time and at a controlled temperature. At the end of the experiments, the solvent was removed and the remaining crystalline material were evaluated using Powder X-ray Diffraction (PXRD) to confirm the resultant form.

[3] = BCS (Biopharmaceutics Classification System) designation; settings: listed as Crystalline Form II of Verubecestat

Row | SMILES | Assay (% LC) ([1]; 2 weeks) | Assay (% LC) ([1]; 4 weeks) | Assay (% LC) ([1]; time point 0) | Degradation Product (%) Hyd1 ([1]; time point 0) | Degradation Product (%) Hyd2 ([1]; time point 0) | Degradation Product (%) Total ([1]; time point 0) | Form remaining after competitive slurry of Form I and Form II (thermodynamic stability) [2] | BCS class [3]
1 | CN1C(=N)N[C@](C)(c2cc(NC(=O)c3ccc(F)cn3)ccc2F)CS1(=O)=O [Crystalline Form I, verubecestat, reference compound] | 98.5 | 97.4 | 98.5 | — (“—”means not more than 0.05%) | — (“—”means not more than 0.05%) | — (“—”means not more than 0.05%) |  | 
2 | CN1C(N)=N[C@](C)(c2cc(NC(=O)c3ccc(F)cn3)ccc2F)CS1(=O)=O [Crystalline Form II, N-[3-[(5R)-3-amino-5,6-dihydro-2,5-dimethyl-1,1-dioxido-2H-1,2,4-thiadiazin-5-yl]-4-fluorophenyl]-5-fluoro-2-pyridinecarboxamide] | 104.6 | 102.4 | 104.3 | — (“—”means not more than 0.05%) | — (“—”means not more than 0.05%) | — (“—”means not more than 0.05%) | the only form remaining | Class I; also recorded: Class 1

Source: US11306080B2, “Crystalline form of a BACE inhibitor, compositions, and use” (Merck Sharp & Dohme Corp., priority 2017, dated 2022)
